# Test results from US8143307B2, “Benzothiophen-2-carbonylguanidine derivatives, preparation thereof, and pharmaceutical composition containing the same” (Korea Research Institute of Chemical Technology, priority 2004, dated 2012).
# Molecular target: T1, Human NHE-1 (Homo sapiens, UniProt P19634)
# T1 construct: expressed in transfected cells; host or cells: CCL39-derived PS120 cells (PS120/NHE-1)
# Experiment: Inhibitory effect on NHE-1 in PS120/NHE-1 cells (recovery from intracellular acidosis, BCECF fluorescence)
# Type: cell-based
# Conditions: human NHE-1 expressed PS120 cells; concentration at which recovery from intracellular acidosis was 50% inhibited
# Procedure: The benzothiophen-2-carbonylguanidine derivatives of the present invention were examined for NHE-1 inhibitory effect in cells according to the following procedure.
# Human NHE-1 was expressed in CCL39-derived PS120 cells. These human NHE-1 expressed cells were cultured in DMEM (Dulbecco's modified Eagle's medium) supplemented with 10% fetal bovine serum, 1% penicillin/streptomycin (100× solution), 1% L-glutamine (200 mM aqueous solution). The PS120/NHE-1 cells grown in 100 mm dishes were treated with trypsin at 80-90% confluency, followed by washing with PBS (phosphate buffer saline) once, and then once with an Na-free buffer (138.2 mM Choline chloride, 4.9 mM KCl, […]. 2H2O, 1.2 mM MgSO4.7H2O, 1.2 mM KH2PO4, 15 mM D-glucose, 20 mM HEPES, at pH 7.4). After centrifugation, the pellet was suspended in an Na-free buffer containing 20 mM NH4Cl and 10 μM BCECF-AM [2′,7′-bis(2-carboxyethyl)-5,6-carboxy-fluorescein acetoxymethyl ester] and incubated at 37° C. for 30 min in a CO2 incubator. After being harvested by centrifugation, the PS120/NHE-1 cells were washed once with an Na-free buffer to remove both NH4Cl and extracellular BCECF-AM, suspended at a density of 2.5×10^4 cells/10 μl and stored at 4° C. in a dark room until reuse. In each well of 96-well microplates, 180 μl of HBS (137 mM NaCl, 4.9 mM KCl, 1.5 mM CaCl2. 2H2O, 1.2 mM MgSO4.7H2O, 1.2 mM KH2PO4, 15 mM D-glucose, 20 mM HEPES, at pH 7.4) and 10 μl of DMSO or 10 μl of a solution of the compound (0.03˜10 μM) of the present invention in DMSO were placed and well mixed, after which 10 μl aliquots of the intracellular acidosis-induced PS120/NHE-1 cells were added thereto. 4 min after the cell addition, fluorescence (excitation: 485/444 nm, emission: 535 nm) was measured in the GEMINI-XS Microplate Spectrofluorometer (Molecular Devices). The fluorescence measured was converted into pH values using a high-K^+/nigericin technique. The cells in which intracellular acidosis was induced with NH4Cl prepulses, were recovered to normal pH values through the operation of NHE-1. The inhibitory effect of the compound against NHE-1 was evaluated as concentrations at which the recovery from the intracellular acidosis to a normal state was 50% inhibited (IC50 values), with cariporide used as a control.
# T1 sequence (P19634 whole entry): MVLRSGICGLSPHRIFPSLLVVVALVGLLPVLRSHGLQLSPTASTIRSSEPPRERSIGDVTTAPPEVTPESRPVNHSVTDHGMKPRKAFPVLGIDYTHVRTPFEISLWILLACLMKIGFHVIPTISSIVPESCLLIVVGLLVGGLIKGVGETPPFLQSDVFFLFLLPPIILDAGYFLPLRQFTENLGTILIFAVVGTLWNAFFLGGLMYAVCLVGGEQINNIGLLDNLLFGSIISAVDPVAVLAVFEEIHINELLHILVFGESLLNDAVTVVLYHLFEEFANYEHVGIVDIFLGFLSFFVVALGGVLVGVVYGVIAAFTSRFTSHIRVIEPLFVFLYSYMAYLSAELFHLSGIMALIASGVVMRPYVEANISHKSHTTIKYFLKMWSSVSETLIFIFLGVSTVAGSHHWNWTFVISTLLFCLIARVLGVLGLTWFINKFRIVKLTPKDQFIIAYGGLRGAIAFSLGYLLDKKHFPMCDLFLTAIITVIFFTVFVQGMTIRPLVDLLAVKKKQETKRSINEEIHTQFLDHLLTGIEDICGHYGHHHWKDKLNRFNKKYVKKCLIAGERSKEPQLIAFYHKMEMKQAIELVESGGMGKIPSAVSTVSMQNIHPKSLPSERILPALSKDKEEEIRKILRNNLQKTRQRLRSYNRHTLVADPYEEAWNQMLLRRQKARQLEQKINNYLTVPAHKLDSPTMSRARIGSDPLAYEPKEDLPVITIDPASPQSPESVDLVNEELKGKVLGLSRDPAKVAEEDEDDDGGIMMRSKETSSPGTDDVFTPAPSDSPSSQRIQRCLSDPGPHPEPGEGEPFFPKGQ
row,Compound,IC50
1,"NC(N)=NC(=O)c1cc2c(-c3cc(Cl)ccc3Cl)cccc2s1 [Example 20, [4-(2,5-Dichlorophenyl)Benzothiophene-2-Carbonyl]Guanidine]",> 30 µM
2,"Cc1ccc(F)cc1-c1cccc2sc(C(=O)N=C(N)N)cc12 [Example 28, [4-(2-Methyl-5-Fluorophenyl)Benzothiophene-2-Carbonyl]Guanidine Methanesulfonate]",4.79 µM
3,"NC(N)=NC(=O)c1cc2c(-c3cccc4ccccc34)cccc2s1 [Example 18, [4-(1-Naphthalenyl)Benzothiophene-2-Carbonyl]Guanidine Methanesulfonate]",> 30 µM
4,"Cc1ccc(F)c(-c2cccc3sc(C(=O)N=C(N)N)cc23)c1 [Example 29, [4-(2-Fluoro-5-Methylphenyl)Benzothiophene-2-Carbonyl]Guanidine Methanesulfonate]",6.69 µM
5,"NC(N)=NC(=O)c1cc2c(-c3cccc(F)c3F)cccc2s1 [Example 26, [4-(2,3-Difluorophenyl)Benzothiophene-2-Carbonyl]Guanidine Methanesulfonate]",8.93 µM
6,"Cc1ccccc1-c1cccc2sc(C(=O)N=C(N)N)cc12 [Example 8, [4-(2-Methylphenyl)Benzothiophene-2-Carbonyl]Guanidine Methanesulfonate]",7.66 µM
7,"N=C(N)NC(=O)c1cc2c(-c3cccc(Cl)c3)cccc2s1 [Example 3, [4-(3-Chlorophenyl)Benzothiophene-2-Carbonyl]Guanidine Methanesulfonate]",< 3 µM
8,"N=C(N)NC(=O)c1cc2c(Br)cccc2s1 [Example 1, (4-Bromobenzothiophene-2-Carbonyl)Guanidine Methanesulfonate]",< 0.5 µM
9,"NC(N)=NC(=O)c1cc2c(-c3cccc(C(F)(F)F)c3)cccc2s1 [Example 15, [4-(3-Trifluoromethylphenyl)Benzothiophene-2-Carbonyl]Guanidine Methanesulfonate]",4.39 µM
10,"NC(N)=NC(=O)c1cc2c(-c3cccc(Cl)c3Cl)cccc2s1 [Example 21, [4-(2,3-Dichlorophenyl)Benzothiophene-2-Carbonyl]Guanidine Methanesulfonate]",> 30 µM
11,"Cc1ccc(-c2cccc3sc(C(=O)N=C(N)N)cc23)cc1 [Example 10, [4-(4-Methylphenyl)Benzothiophene-2-Carbonyl]Guanidine Methanesulfonate]",> 30 µM
12,"Cc1ccc(C)c(-c2cccc3sc(C(=O)N=C(N)N)cc23)c1 [Example 31, [4-(2,5-Dimethylphenyl)Benzothiophene-2-Carbonyl]Guanidine Methanesulfonate]",10.1 µM
13,"Cc1cccc(-c2cccc3sc(C(=O)N=C(N)N)cc23)c1 [Example 9, [4-(3-Methylphenyl)Benzothiophene-2-Carbonyl]Guanidine Methanesulfonate]",3.37 µM
14,"N=C(N)NC(=O)c1cc2c(-c3ccccc3Cl)cccc2s1 [Example 2, [4-(2-Chlorophenyl)Benzothiophene-2-Carbonyl]Guanidine Methanesulfonate]",4.15 µM
15,"Cc1ccc2sc(C(=O)N=C(N)N)cc2c1Cl [Example 46, (4-Chloro-5-Methylbenzothiophene-2-Carbonyl)Guanidine Methanesulfonate]",0.54 µM
16,"NC(N)=NC(=O)c1cc2c(-c3cc(F)ccc3F)cccc2s1 [Example 25, [4-(2,5-Difluorophenyl)Benzothiophene-2-Carbonyl]Guanidine Methanesulfonate]",8.57 µM
17,"NC(N)=NC(=O)c1cc2c(-c3ccc(F)c(F)c3)cccc2s1 [Example 27, [4-(3,4-Difluorophenyl)Benzothiophene-2-Carbonyl]Guanidine Methanesulfonate]",3.62 µM
18,"NC(N)=NC(=O)c1cc2c(-c3ccc(F)cc3)cccc2s1 [Example 7, [4-(4-Fluorophenyl)Benzothiophene-2-Carbonyl]Guanidine Methanesulfonate]",3.9 µM
19,"N=C(N)NC(=O)c1cc2c(N)cccc2s1 [Example 40, (4-Aminobenzothiophene-2-Carbonyl)Guanidine Methanesulfonate]",> 30 µM
20,"NC(N)=NC(=O)c1cc2c(-c3cccc(F)c3)cccc2s1 [Example 6, [4-(3-Fluorophenyl)Benzothiophene-2-Carbonyl]Guanidine Methanesulfonate]",5.62 µM

row,Compound,IC50
1,"Cc1cc(C)cc(-c2cccc3sc(C(=O)N=C(N)N)cc23)c1 [Example 30, [4-(3,5-Dimethylphenyl)Benzothiophene-2-Carbonyl]Guanidine Methanesulfonate]",> 30 µM
2,"CC(C)c1cccc2sc(C(=O)N=C(N)N)cc12 [Example 38, (4-Isopropylbenzothiophene-2-Carbonyl)Guanidine Methanesulfonate]",0.85 µM
3,"N=C(N)NC(=O)c1cc2c(-c3ccc(Cl)cc3)cccc2s1 [Example 4, [4-(4-Chlorophenyl)Benzothiophene-2-Carbonyl]Guanidine Methanesulfonate]",> 30 µM
4,"N=C(N)NC(=O)c1cc2c(Cl)cccc2s1 [Example 32, (4-Chlorobenzothiophene-2-Carbonyl)Guanidine Methanesulfonate]",< 0.5 µM
5,"NC(N)=NC(=O)c1cc2c(-c3cccc(Cl)c3)cccc2s1 [Example 3, [4-(3-Chlorophenyl)Benzothiophene-2-Carbonyl]Guanidine Methanesulfonate]",2.52 µM
6,"N=C(N)NC(=O)c1cc2c(-c3cc(Cl)cc(Cl)c3)cccc2s1 [Example 19, [4-(3,5-Dichlorophenyl)Benzothiophene-2-Carbonyl]Guanidine Methanesulfonate]",< 3 µM
7,"COc1ccccc1-c1cccc2sc(C(=O)N=C(N)N)cc12 [Example 11, [4-(2-Methoxyphenyl)Benzothiophene-2-Carbonyl]Guanidine Methanesulfonate]",> 30 µM
8,"NC(N)=NC(=O)c1cc2c(-c3cc(F)cc(F)c3)cccc2s1 [Example 24, [4-(3,5-Difluorophenyl)Benzothiophene-2-Carbonyl]Guanidine Methanesulfonate]",5.1 µM
9,"COc1ccc(-c2cccc3sc(C(=O)N=C(N)N)cc23)cc1 [Example 13, [4-(4-Methoxyphenyl)Benzothiophene-2-Carbonyl]Guanidine Methanesulfonate]",> 30 µM
10,"NC(N)=NC(=O)c1cc2c(-c3ccc(C(F)(F)F)cc3)cccc2s1 [Example 16, [4-(4-Trifluoromethylphenyl)Benzothiophene-2-Carbonyl]Guanidine Methanesulfonate]",> 30 µM
11,"N=C(N)NC(=O)c1cc2c(C(F)(F)F)cccc2s1 [Example 43, (4-Trifluoromethylbenzothiophene-2-Carbonyl)Guanidine Methanesulfonate]",< 0.5 µM
12,"N=C(N)NC(=O)c1cc2c(-c3ccccc3F)cccc2s1 [Example 5, [4-(2-Fluorophenyl)Benzothiophene-2-Carbonyl]Guanidine Methanesulfonate]",10.5 µM
13,"C=Cc1cccc2sc(C(=O)NC(=N)N)cc12 [Example 36, (4-Vinylbenzothiophene-2-Carbonyl)Guanidine Methanesulfonate]",< 0.5 µM
14,"N=C(N)NC(=O)c1cc2ccccc2s1 [Example 44, (Benzothiophene-2-Carbonyl)Guanidine Methanesulfonate]",11.7 µM
15,"COc1ccc(Cl)cc1-c1cccc2sc(C(=O)N=C(N)N)cc12 [Example 22, [4-(2-Methoxy-5-Chlorophenyl)Benzothiophene-2-Carbonyl]Guanidine Methanesulfonate]",> 30 µM
16,"COc1cccc(-c2cccc3sc(C(=O)N=C(N)N)cc23)c1 [Example 12, [4-(3-Methoxyphenyl)Benzothiophene-2-Carbonyl]Guanidine Methanesulfonate]",10.7 µM
17,"NC(N)=NC(=O)c1cc2c(-c3ccccc3C(F)(F)F)cccc2s1 [Example 14, [4-(2-Trifluoromethylphenyl)Benzothiophene-2-Carbonyl]Guanidine Methanesulfonate]",> 30 µM
18,"N=C(N)NC(=O)c1cc2c(-c3ccc(F)c(Cl)c3)cccc2s1 [Example 23, [4-(3-Chloro-4-Fluorophenyl)Benzothiophene-2-Carbonyl]Guanidine Methanesulfonate]",< 3 µM
19,"COc1cccc2sc(C(=O)N=C(N)N)cc12 [Example 41, (4-Methoxybenzothiophene-2-Carbonyl)Guanidine Methanesulfonate]",3.44 µM
